Experimental data taken from patent US20210253518A1, “KINASE INHIBITOR” (NISSAN CHEMICAL CORPORATION, priority 2018, published 2021).
Like-named read-outs stand apart in the source and are kept apart here.

Tests used:
Experiment in all cases: Off-chip Mobility Shift Assay (MSA method), kinase inhibition
Assay type in all cases: biochemical
[1] = molecular target: PKACβ (Homo sapiens, UniProt P22694); settings: for inhibition at 0.1 µM: read-out: inhibition (%) PKACβ
Protocol: (§1) For compound k-1:B-1, inhibitory activity evaluation (calculation of 50% inhibitory concentration (IC50)) was performed on 8 kinds of kinases (CGK2, LATS2, MSK1, p70S6K, PKACα, PKACβ, SGK2, SGK3). The activity was measured using the Off-chip Mobility Shift Assay (MSA method) described below. The compound was added such that the test concentration of k-1:B-1 was in 10 steps from the final concentration of 10 μM to 0.3 nM.
(§2) As an analysis method of the data, the mean signal of the control well containing all reaction components was set to 0% inhibition, the mean signal without enzyme addition was set to 100% inhibition, and the inhibition rate was calculated from the mean signal of 2 wells of each test substance test. The IC50 value was obtained by approximating a plot based on the test substance concentration and inhibition rate to a 4 parameter logistics curve by using the Excel Solver add-in and by the non-linear least squares method.
(§3) 5 μL of k-1:B-1 solution at 4-fold concentration, 5 μL of substrate/ATP/metal solution at 4-fold concentration, and 10 μL of kinase solution at 2-fold concentration, each prepared with assay buffer (20 mM HEPES, 0.01% Triton X-100, 2 mM DTT, pH 7.5), were mixed in the wells of a polypropylene 384-well plate and reacted at room temperature for 1 or 5 hr. Successively, 70 μL of Termination Buffer (QuickScout Screening Assist MSA; Carna Biosciences) was added to discontinue the reaction. Then, the substrate peptide and the phosphorylated peptide in the reaction solution were separated and quantified by the LabChip system (Perkin Elmer). The kinase reaction was evaluated by the resultant product ratio (P/(P+S)) calculated from the substrate peptide peak height (S) and the phosphorylated peptide peak height (P).
(§4) For compounds k-1:H-7, k-1:H-1, k-1:D-1, k-1:J-1, and k-1:B-1, inhibitory rate at 100 nM was calculated on 8 kinds of kinases (CGK2, LATS2, MSK1, p70S6K, PKACα, PKACβ, SGK2, SGK3). The activity was measured using the MSA method. As an analysis method of the data, the mean signal of the control well containing all reaction components was set to 0% inhibition, the mean signal without enzyme addition was set to 100% inhibition, and the inhibition rate was calculated from the mean signal of 2 wells of each test substance test.
as §3, with “a compound” for “k-1:B-1”

[2] = molecular target: T1, SGK2 (Homo sapiens, UniProt Q9HBY8); settings: for inhibition at 0.1 µM: read-out: inhibition (%) SGK2
T1 sequence (Q9HBY8 1-367): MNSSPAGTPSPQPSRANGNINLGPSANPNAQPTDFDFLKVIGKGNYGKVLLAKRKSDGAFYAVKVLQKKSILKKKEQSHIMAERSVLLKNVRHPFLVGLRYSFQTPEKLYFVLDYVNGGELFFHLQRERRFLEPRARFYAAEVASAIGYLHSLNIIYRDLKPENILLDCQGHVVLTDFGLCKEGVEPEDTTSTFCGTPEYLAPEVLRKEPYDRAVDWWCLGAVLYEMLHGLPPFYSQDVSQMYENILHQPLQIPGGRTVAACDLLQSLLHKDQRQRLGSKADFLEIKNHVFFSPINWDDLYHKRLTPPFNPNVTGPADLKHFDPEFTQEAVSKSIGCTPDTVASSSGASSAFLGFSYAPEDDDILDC
Protocol: as §1, §2, §3, §4
as §3, with “a compound” for “k-1:B-1”

[3] = molecular target: p70S6K (Homo sapiens, UniProt P23443); settings: for inhibition at 0.1 µM: read-out: inhibition (%) p70S6K
Chain of p70S6K (P23443 whole entry): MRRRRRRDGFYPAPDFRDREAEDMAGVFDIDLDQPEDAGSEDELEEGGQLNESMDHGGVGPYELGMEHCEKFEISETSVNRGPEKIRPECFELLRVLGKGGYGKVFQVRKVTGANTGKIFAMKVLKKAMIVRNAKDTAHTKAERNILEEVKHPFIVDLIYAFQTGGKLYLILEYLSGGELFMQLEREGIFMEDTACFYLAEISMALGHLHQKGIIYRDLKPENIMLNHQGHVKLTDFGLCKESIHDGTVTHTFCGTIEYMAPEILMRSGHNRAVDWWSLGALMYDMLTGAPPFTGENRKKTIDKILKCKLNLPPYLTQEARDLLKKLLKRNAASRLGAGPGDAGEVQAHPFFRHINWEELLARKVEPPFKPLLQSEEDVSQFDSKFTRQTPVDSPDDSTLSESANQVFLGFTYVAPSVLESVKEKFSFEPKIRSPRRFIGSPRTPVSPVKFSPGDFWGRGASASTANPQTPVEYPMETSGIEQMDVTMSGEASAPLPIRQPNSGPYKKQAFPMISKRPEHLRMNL
Protocol: as §1, §2, §3, §4
as §3, with “a compound” for “k-1:B-1”

[4] = molecular target: MSK1 (Homo sapiens, UniProt O75582); settings: for inhibition at 0.1 µM: read-out: inhibition (%) MSK1
Chain of MSK1 (O75582 whole entry): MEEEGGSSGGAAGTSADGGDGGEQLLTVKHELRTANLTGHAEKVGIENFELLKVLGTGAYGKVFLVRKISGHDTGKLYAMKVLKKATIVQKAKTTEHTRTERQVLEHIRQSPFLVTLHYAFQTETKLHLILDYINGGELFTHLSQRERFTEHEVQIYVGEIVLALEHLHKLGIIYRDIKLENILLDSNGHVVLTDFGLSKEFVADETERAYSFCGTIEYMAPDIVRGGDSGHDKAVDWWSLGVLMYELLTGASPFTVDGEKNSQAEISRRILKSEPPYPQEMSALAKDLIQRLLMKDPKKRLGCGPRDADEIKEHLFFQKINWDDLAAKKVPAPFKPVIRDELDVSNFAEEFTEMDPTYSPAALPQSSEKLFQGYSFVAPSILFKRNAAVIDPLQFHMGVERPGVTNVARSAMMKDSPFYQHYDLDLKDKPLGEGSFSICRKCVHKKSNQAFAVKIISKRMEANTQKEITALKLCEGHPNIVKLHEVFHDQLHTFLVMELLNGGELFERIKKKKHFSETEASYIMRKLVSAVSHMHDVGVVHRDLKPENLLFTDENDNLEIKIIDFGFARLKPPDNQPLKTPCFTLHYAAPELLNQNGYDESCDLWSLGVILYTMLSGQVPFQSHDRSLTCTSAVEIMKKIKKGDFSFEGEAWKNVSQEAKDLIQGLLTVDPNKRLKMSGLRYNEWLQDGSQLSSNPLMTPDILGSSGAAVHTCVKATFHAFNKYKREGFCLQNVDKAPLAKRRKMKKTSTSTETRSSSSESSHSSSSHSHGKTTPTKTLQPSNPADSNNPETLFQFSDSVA
Protocol: as §1, §2, §3, §4
as §3, with “a compound” for “k-1:B-1”

[5] = molecular target: T2, CGK2 (Homo sapiens, UniProt Q13237); settings: for inhibition at 0.1 µM: read-out: inhibition (%) CGK2
T2 sequence (Q13237 1-762): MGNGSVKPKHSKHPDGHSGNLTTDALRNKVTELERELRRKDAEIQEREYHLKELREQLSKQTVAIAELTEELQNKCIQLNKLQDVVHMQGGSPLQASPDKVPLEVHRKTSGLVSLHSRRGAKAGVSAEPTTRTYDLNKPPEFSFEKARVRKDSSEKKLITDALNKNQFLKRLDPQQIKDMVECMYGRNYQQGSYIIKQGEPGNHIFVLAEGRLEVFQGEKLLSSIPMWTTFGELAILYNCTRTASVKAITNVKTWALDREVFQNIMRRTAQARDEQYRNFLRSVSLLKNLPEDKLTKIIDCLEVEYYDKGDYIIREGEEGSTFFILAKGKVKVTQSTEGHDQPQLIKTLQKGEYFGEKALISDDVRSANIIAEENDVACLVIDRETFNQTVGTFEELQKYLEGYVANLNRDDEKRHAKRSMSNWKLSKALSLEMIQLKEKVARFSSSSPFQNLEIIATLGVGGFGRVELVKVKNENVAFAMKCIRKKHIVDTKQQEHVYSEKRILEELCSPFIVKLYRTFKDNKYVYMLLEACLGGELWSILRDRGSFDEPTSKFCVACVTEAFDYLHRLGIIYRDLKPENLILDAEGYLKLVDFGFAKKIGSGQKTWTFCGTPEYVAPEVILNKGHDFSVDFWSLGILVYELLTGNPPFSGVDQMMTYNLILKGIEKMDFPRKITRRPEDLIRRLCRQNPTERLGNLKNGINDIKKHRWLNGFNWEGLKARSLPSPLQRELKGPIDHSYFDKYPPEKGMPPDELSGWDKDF
Protocol: as §1, §2, §3, §4
as §3, with “a compound” for “k-1:B-1”

[6] = molecular target: PKACα (Homo sapiens, UniProt P17612); settings: for inhibition at 0.1 µM: read-out: inhibition (%) PKACα
Protocol: as §1, §2, §3, §4
as §3, with “a compound” for “k-1:B-1”

[7] = MSA method, 10 steps from 10 μM to 0.3 nM

inhibition at 0.1 µM ([1]; at 100 nM, MSA method) [%] | inhibition at 0.1 µM ([2]; at 100 nM, MSA method) [%] | inhibition at 0.1 µM ([3]; at 100 nM, MSA method) [%] | inhibition at 0.1 µM ([4]; at 100 nM, MSA method) [%] | inhibition at 0.1 µM ([5]; at 100 nM, MSA method) [%] | inhibition at 0.1 µM ([6]; at 100 nM, MSA method) [%] | IC50 [1, 7] [nM] | IC50 [2, 7] [nM] | IC50 [3, 7] [nM] | IC50 [4, 7] [nM] | IC50 [5, 7] [nM] | IC50 [6, 7] [nM] | Compound | inhibition at 0.1 µM [1] [%] | inhibition at 0.1 µM [2] [%] | inhibition at 0.1 µM [3] [%] | inhibition at 0.1 µM [4] [%] | inhibition at 0.1 µM [5] [%] | inhibition at 0.1 µM [6] [%]
 |  |  |  |  |  |  |  |  |  |  |  | CC/C(=N\NC(=O)NCc1cccc(O)c1)c1ccc(O)c(C)c1O [k-1:J-1] | 89.7 | 95.1 | 78.3 | 99.6 | 51.3 | 94
87.7 | 93.6 | 82 | 99.7 | 77.6 | 92.1 |  |  |  |  |  |  | CCC(=NNC(=O)CNc1ccccc1)c1ccc(O)c(C)c1O [k-1:H-1] |  |  |  |  |  | 
80.1 | 87.3 | 67.6 | 87.7 | 83.2 | 82.8 | 29.3 | 13.2 | 41.5 | 17.4 | 29.9 | 23.4 | CC/C(=N\NC(=O)C(C)Nc1ccccc1)c1ccc(O)c(C)c1O (stereo not drawn) [k-1:B-1] |  |  |  |  |  | 
 |  |  |  |  |  |  |  |  |  |  |  | CC/C(=N\NC(=O)CNc1cccc(O)c1)c1ccc(O)c(C)c1O [k-1:D-1] | 98.5 | 99.9 | 97.9 | 101 | 97.2 | 99.7
72 | 84.3 | 70.3 | 94.9 | 80.8 | 77.7 |  |  |  |  |  |  | CCC(=NNC(=O)C(CC)Nc1ccccc1)c1ccc(O)c(C)c1O (stereo not drawn) [k-1:H-7] |  |  |  |  |  | 
